Laboratory results taken from the supplement of paper PMC6045584.
± gives the standard deviation of the averaged measurements.

Key:
SNX-5422 [1] = compound: T1, CC1(C)CC(=O)c2c(C(F)(F)F)nn(-c3ccc(C(N)=O)c(N[C@H]4CC[C@H](OC(=O)CN)CC4)c3)c2C1 [SNX-5422]; experiment: surviving fraction relative to DMSO-only wells; higher = less growth inhibition; details: exposure time: 5 days
Procedure, shortened: (§1)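 After seeding at 250–500 cells per well in 384-well plates and a 24-hour wait, log-phase tumour cell lines were exposed without interruption for five days to inhibitors at 0.5, 1, 5, 10, 50, 100, 500 and 1000 nM. CellTiter-Glo luminescence was recorded after 10 minutes at room temperature. Viability is reported as surviving fraction, the luminescence normalised to the median of DMSO-only wells.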

BI-2536 [2] = compound: T2, CC[C@@H]1C(=O)N(C)c2cnc(Nc3ccc(C(=O)NC4CCN(C)CC4)cc3OC)nc2N1C1CCCC1 [BI-2536]; experiment: as above; details: exposure time: 5 days
Procedure, shortened: as §1

TIOGUANINE [3] = compound: T3, Nc1nc2[nH]cnc2c(=S)[nH]1 [TIOGUANINE]; experiment: as above; details: exposure time: 5 days
Procedure, shortened: as §1

[4] = compound: Cn1cc(C2=Nc3cc(NC(=O)C(N)C4CCCCC4)cc4c3C2=CNNC4=O)cn1; experiment: as above; details: exposure time: 5 days
Procedure, shortened: as §1

CANERTINIB [5] = compound: T4, C=CC(=O)Nc1cc2c(Nc3ccc(F)c(Cl)c3)ncnc2cc1OCCCN1CCOCC1 [CANERTINIB]; experiment: as above; details: exposure time: 5 days
Procedure, shortened: as §1

AFATINIB = compound: CN(C)C/C=C/C(=O)Nc1cc2c(Nc3ccc(F)c(Cl)c3)ncnc2cc1O[C@H]1CCOC1 [AFATINIB]; experiment: as above; details: exposure time: 5 days
Procedure, shortened: as §1

SAPACITABINE [6] = compound: T5, CCCCCCCCCCCCCCCC(=O)Nc1ccn([C@@H]2O[C@H](CO)[C@@H](O)[C@@H]2C#N)c(=O)n1 [SAPACITABINE]; experiment: as above; details: exposure time: 5 days
Procedure, shortened: as §1

MDV3100 [7] = compound: T6, CNC(=O)c1ccc(N2C(=S)N(c3ccc(C#N)c(C(F)(F)F)c3)C(=O)C2(C)C)cc1F [MDV3100]; experiment: as above; details: exposure time: 5 days
Procedure, shortened: as §1

SNX-5422 [8] = compound: T1, SNX-5422; experiment: area under dose-response curve of surviving fraction (unscaled, Aref=0) (surviving fraction x log10(nM)); higher = more resistant; details: exposure time: 5 days; dose range 0.5-1000 nM
Procedure, shortened: (§2)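 Tumour cell lines in 384-well plates were exposed for five days to eight inhibitor concentrations from 0.5 to 1000 nM. Viability was read by CellTiter-Glo luminescence, normalised to DMSO-only wells, in three screens per line. Dose-response survival curves were fitted to surviving fractions by 3-parameter logistic regression in the drc R package. Area under the curve is the unscaled activity area (Aref = 0) over log10 dose.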

BI-2536 [9] = compound: T2, BI-2536; experiment: as above; details: exposure time: 5 days; dose range 0.5-1000 nM
Procedure, shortened: as §2

TIOGUANINE [10] = compound: T3, TIOGUANINE; experiment: as above; details: exposure time: 5 days; dose range 0.5-1000 nM
Procedure, shortened: as §2

[11] = compound: Cn1cc(C2=Nc3cc(NC(=O)C(N)C4CCCCC4)cc4c3C2=CNNC4=O)cn1; experiment: as above; details: exposure time: 5 days; dose range 0.5-1000 nM
Procedure, shortened: as §2

CANERTINIB [12] = compound: T4, CANERTINIB; experiment: as above; details: exposure time: 5 days; dose range 0.5-1000 nM
Procedure, shortened: as §2

SAPACITABINE [13] = compound: T5, SAPACITABINE; experiment: as above; details: exposure time: 5 days; dose range 0.5-1000 nM
Procedure, shortened: as §2

MDV3100 [14] = compound: T6, MDV3100; experiment: as above; details: exposure time: 5 days; dose range 0.5-1000 nM
Procedure, shortened: as §2

For BT20 BREAST, which surviving fraction (SNX-5422 [1]; 0.5 nM) is on record?
Its surviving fraction is 1.14 ± 0.047.

What about the surviving fraction (SNX-5422 [1]; 1 nM) of the same test system?
The surviving fraction was 1.1 ± 0.088.

What about the surviving fraction (SNX-5422 [1]; 5 nM) of the same test system?
Its surviving fraction is 1.14 ± 0.05.

What about the surviving fraction (SNX-5422 [1]; 10 nM) of the same test system?
The surviving fraction was 1.094 ± 0.0083.

What about the surviving fraction (SNX-5422 [1]; 50 nM) of the same test system?
Its surviving fraction is 0.738 ± 0.039.

And the surviving fraction (SNX-5422 [1]; 100 nM)?
Its surviving fraction is 0.411 ± 0.063.

And the surviving fraction (SNX-5422 [1]; 500 nM)?
Its surviving fraction is 0.329 ± 0.046.

And the surviving fraction (SNX-5422 [1]; 1000 nM)?
The surviving fraction was 0.298 ± 0.052.

What about the surviving fraction (BI-2536 [2]; 0.5 nM) of the same test system?
The surviving fraction was 1.01 ± 0.19.

And the surviving fraction (BI-2536 [2]; 1 nM)?
Its surviving fraction is 0.758 ± 0.17.

And the surviving fraction (BI-2536 [2]; 5 nM)?
The surviving fraction was 0.0813 ± 0.018.

What about the surviving fraction (BI-2536 [2]; 10 nM) of the same test system?
The surviving fraction was 0.0613 ± 0.031.

And the surviving fraction (BI-2536 [2]; 50 nM)?
The surviving fraction was 0.0983 ± 0.025.

What about the surviving fraction (BI-2536 [2]; 100 nM) of the same test system?
The surviving fraction was 0.109 ± 0.031.

What about the surviving fraction (BI-2536 [2]; 500 nM) of the same test system?
The surviving fraction was 0.135 ± 0.056.

And the surviving fraction (BI-2536 [2]; 1000 nM)?
Its surviving fraction is 0.154 ± 0.052.

What about the surviving fraction (TIOGUANINE [3]; 0.5 nM) of the same test system?
Its surviving fraction is 1.02 ± 0.028.

And the surviving fraction (TIOGUANINE [3]; 1 nM)?
The surviving fraction was 1.05 ± 0.12.

And the surviving fraction (TIOGUANINE [3]; 5 nM)?
The surviving fraction was 1.07 ± 0.033.

And the surviving fraction (TIOGUANINE [3]; 10 nM)?
Its surviving fraction is 1.03 ± 0.048.

What about the surviving fraction (TIOGUANINE [3]; 50 nM) of the same test system?
Its surviving fraction is 1.12 ± 0.068.

And the surviving fraction (TIOGUANINE [3]; 100 nM)?
The surviving fraction was 1.08 ± 0.081.

And the surviving fraction (TIOGUANINE [3]; 500 nM)?
The surviving fraction was 0.958 ± 0.12.

What about the surviving fraction (TIOGUANINE [3]; 1000 nM) of the same test system?
The surviving fraction was 0.969 ± 0.18.

What about the surviving fraction ([4]; 0.5 nM) of the same test system?
Its surviving fraction is 1.1 ± 0.05.

What about the surviving fraction ([4]; 1 nM) of the same test system?
The surviving fraction was 1.08 ± 0.047.

And the surviving fraction ([4]; 5 nM)?
Its surviving fraction is 1.09 ± 0.092.

What about the surviving fraction ([4]; 10 nM) of the same test system?
The surviving fraction was 1.05 ± 0.074.

What about the surviving fraction ([4]; 50 nM) of the same test system?
The surviving fraction was 0.943 ± 0.08.

And the surviving fraction ([4]; 100 nM)?
The surviving fraction was 0.847 ± 0.054.

What about the surviving fraction ([4]; 500 nM) of the same test system?
The surviving fraction was 0.976 ± 0.1.

What about the surviving fraction ([4]; 1000 nM) of the same test system?
Its surviving fraction is 0.874 ± 0.065.

And the surviving fraction (CANERTINIB [5]; 0.5 nM)?
Its surviving fraction is 0.691 ± 0.0098.

And the surviving fraction (CANERTINIB [5]; 1 nM)?
Its surviving fraction is 0.712 ± 0.017.

And the surviving fraction (CANERTINIB [5]; 5 nM)?
The surviving fraction was 0.654 ± 0.075.

What about the surviving fraction (CANERTINIB [5]; 10 nM) of the same test system?
Its surviving fraction is 0.609 ± 0.058.

And the surviving fraction (CANERTINIB [5]; 50 nM)?
Its surviving fraction is 0.908 ± 0.035.

What about the surviving fraction (CANERTINIB [5]; 100 nM) of the same test system?
Its surviving fraction is 0.899 ± 0.084.

What about the surviving fraction (CANERTINIB [5]; 500 nM) of the same test system?
The surviving fraction was 0.82 ± 0.057.

What about the surviving fraction (CANERTINIB [5]; 1000 nM) of the same test system?
Its surviving fraction is 0.824 ± 0.069.

What about the surviving fraction (AFATINIB; 0.5 nM) of the same test system?
The surviving fraction was 1.1 ± 0.22.

And the surviving fraction (AFATINIB; 1 nM)?
The surviving fraction was 1.03 ± 0.2.

And the surviving fraction (AFATINIB; 5 nM)?
Its surviving fraction is 0.943 ± 0.24.

What about the surviving fraction (AFATINIB; 10 nM) of the same test system?
Its surviving fraction is 0.922 ± 0.15.

What about the surviving fraction (AFATINIB; 50 nM) of the same test system?
Its surviving fraction is 0.909 ± 0.17.

And the surviving fraction (AFATINIB; 100 nM)?
The surviving fraction was 0.857 ± 0.3.

What about the surviving fraction (AFATINIB; 500 nM) of the same test system?
The surviving fraction was 1.18 ± 0.3.

And the surviving fraction (AFATINIB; 1000 nM)?
Its surviving fraction is 1.28 ± 0.15.

What about the surviving fraction (SAPACITABINE [6]; 0.5 nM) of the same test system?
The surviving fraction was 0.764 ± 0.042.

What about the surviving fraction (SAPACITABINE [6]; 1 nM) of the same test system?
Its surviving fraction is 0.743 ± 0.021.

And the surviving fraction (SAPACITABINE [6]; 5 nM)?
The surviving fraction was 0.679 ± 0.051.

And the surviving fraction (SAPACITABINE [6]; 10 nM)?
The surviving fraction was 0.633 ± 0.11.

What about the surviving fraction (SAPACITABINE [6]; 50 nM) of the same test system?
The surviving fraction was 0.515 ± 0.028.

And the surviving fraction (SAPACITABINE [6]; 100 nM)?
Its surviving fraction is 0.396 ± 0.025.

And the surviving fraction (SAPACITABINE [6]; 500 nM)?
The surviving fraction was 0.211 ± 0.023.

What about the surviving fraction (SAPACITABINE [6]; 1000 nM) of the same test system?
Its surviving fraction is 0.281 ± 0.051.

And the surviving fraction (MDV3100 [7]; 0.5 nM)?
Its surviving fraction is 1.1 ± 0.12.

What about the surviving fraction (MDV3100 [7]; 1 nM) of the same test system?
Its surviving fraction is 1.15 ± 0.066.

What about the surviving fraction (MDV3100 [7]; 5 nM) of the same test system?
Its surviving fraction is 1.11 ± 0.042.

What about the surviving fraction (MDV3100 [7]; 10 nM) of the same test system?
Its surviving fraction is 1.14 ± 0.029.

What about the surviving fraction (MDV3100 [7]; 50 nM) of the same test system?
Its surviving fraction is 0.907 ± 0.036.

And the surviving fraction (MDV3100 [7]; 100 nM)?
The surviving fraction was 1.13 ± 0.068.

What about the surviving fraction (MDV3100 [7]; 500 nM) of the same test system?
The surviving fraction was 0.969 ± 0.1.

What about the surviving fraction (MDV3100 [7]; 1000 nM) of the same test system?
Its surviving fraction is 1.02 ± 0.03.

And the “area under dose-response curve” value (SNX-5422 [8])?
Its value is 2.46.

And the “area under dose-response curve” value (BI-2536 [9])?
Its value is 0.663.

What about the “area under dose-response curve” value (TIOGUANINE [10]) of the same test system?
The value was 3.43.

And the “area under dose-response curve” value [11]?
The value was 3.17.

And the “area under dose-response curve” value (CANERTINIB [12])?
The value was 2.52.

What about the “area under dose-response curve” value (SAPACITABINE [13]) of the same test system?
The value was 1.76.

What about the “area under dose-response curve” value (MDV3100 [14]) of the same test system?
The value was 3.5.
